Laboratory results published in US20230293530A1, “AGENTS FOR SENSITIZING SOLID TUMORS TO TREATMENT” (Yeda Research and Development Co. Ltd., priority 2020, published 2023).
One block for each molecule: values may come before it.

Columns and labels:
[1] = system: 4T1 cells; assay: In-vivo EDHB experiment, 4T1 tumors in mammary fat pad; set-up: species or system female BALB/c mice
Procedure: In-vivo EDHB experiment: Eight-week-old female BALB/c mice were inoculated with 4T1 in the mammary fat pad (1 × 10^6 cells). ethyl 3,4 dihydroxybenzoate (EDHB) treatment was started after 4 days when the primary tumor nodule was established and palpable. EDHB (40 mg per kg) was intraperitoneally injected daily into cancer-bearing mice. EDHB was initially dissolved in 100% Ethanol and diluted to required concentration in saline. 95% Saline/5% Ethanol mix without drug was injected as a vehicle to control animals. Following injection, mice were treated with 250 ug of anti PD-1 antibody on days 7, 11, 13, 15. On day 19, mice were euthanized and tumors were removed and weighted.

[2] = system: NSCLC PDX explants with autologous CD8+ T cells; assay: Co-culture of NSCLC PDX tumor explants with autologous CD8+ T cells, IFNγ ELISA; type: cell-based, human; conditions: for IFNγ secretion by autologous CD8+ T cells, anti-PD1 plus mizoribine-treated explants: explants pre-treated with mizoribine 0.3 mM 10 hrs, nivolumab or pembrolizumab 20 µg/mL, 18 hours
Description: Two patients bearing metastatic non-small cell lung cancer (NSCLC) were included in this study. Blood samples and fresh tumor tissue samples were procured just after their biopsy with patient consent and with Helsinki approval (number 0093-19-SOR). The samples were placed in serum free DMEM (Gibco) media then processed for implantation in NSG (NOD scid gamma) mice. Tumor tissue samples were implanted subcutaneously in dorsal flanks of the mice to form patient-derived xenografts (PDXs). All animal experiments were done under Institutional Animal Care and Use Committee (IACUC) of Ben-Gurion University of the Negev (BGU’s IACUC) according to specified protocols aiming to ensure animal welfare and reduce su □ ering. The Animal ethical clearance protocol number used for this research is IL-80-12-2015. After isolation of peripheral blood mononuclear cells (PBMCs) from the peripheral blood of the patients according to standard protocol using Lymphocyte Separation Medium (LSM, MP Biomedicals, SKU 0850494-CF), CD8^+ T cells were isolated from PBMCs by employing human CD8 Microbeads (Miltenyi Biotec, 130-045-201), LS column (Miltenyi Biotec, 130-042-401) and MidiMACS Separator (130-042-302) following manufacturer’s protocol. For culturing and maintenance of CD8 T cells, RPMI containing 10% human male AB plasma (Sigma, H4522), 1 mM sodium pyruvate, 2 mM L-glutamine, 0.1 mM MEM non-essential amino acids, 1% penicillin/streptomycin, 10 mM HEPES (Life Technologies), 200 IU/mL recombinant human IL-2 (PeproTech) and 50 ng/mL anti-human CD3 Antibody (BioLegend, 317302) were used for the first 48 hrs followed by culturing and passaging in media containing 200 IU/mL of IL-2.
2×2×2 mm^3 tumor tissue explants were cut from PDXs with a specific tissue cutter and seeded singly in 48 well flat-bottom plates and incubated with either mizoribine (0.3 mM) in 400 µl of media or with only media for 10 hrs. Then, explants were washed once and transferred into new 48 well flat-bottom plates containing 2×10^5 CD8+T cells/well along with nivolumab (Opdivo, 20 µg/mL), pembrolizumab (Keytruda, 20 µg/mL) or mock solventin fresh 400 µl RPMI containing 20 IU/ml ofIL-2. After 18 hours of incubation, the supernatant was collected from the wells and then assayed for standard IFNγ ELISA assay (ELISA MAX, Biolegend) according to manufacturer’s instructions.
Two patients bearing metastatic non-small cell lung cancer (NSCLC) were included in this study. Blood samples and fresh tumor tissue samples were procured just after their biopsy with patient consent and with Helsinki approval (number 0093-19-SOR). The samples were placed in serum free DMEM (Gibco) media then processed for implantation in NSG (NOD scid gamma) mice (NOD.Cg-Prkdcscid Il2rgtm1Wjl, The Jackson Laboratory). Tumor tissue samples were implanted subcutaneously in dorsal flanks of the 7-9 weeks old male mice to form patient-derived xenografts (PDXs).
After isolation of peripheral blood mononuclear cells (PBMCs) from the peripheral blood of the patients according to standard protocol using Lymphocyte Separation Medium (LSM, MP Biomedicals, SKU 0850494-CF), CD8^+ T cells were isolated from PBMCs by employing human CD8 Microbeads (Miltenyi Biotec, 130-045-201), LS column (Miltenyi Biotec, 130-042-401) and MidiMACS Separator (130-042-302) following manufacturer’s protocol. For culturing and maintenance of CD8 T cells, RPMI containing 10% human male AB plasma (Sigma, H4522), 1 mM sodium pyruvate, 2 mM L-glutamine, 0.1 mM MEM non-essential amino acids, 1% penicillin/streptomycin, 10 mM HEPES (Life Technologies), 200 IU/mL recombinant human IL-2 (PeproTech) and 50 ng/mL anti-human CD3 Antibody (BioLegend, 317302) were used for the first 48 hrs followed by culturing and passaging in media containing 200 IU/mL of IL-2.
PDXs from patients with lung cancer non responsive to anti-PD1 were exposed to no treatment, to mizoribine, or to either EDHB (left panel) or Viagra (right panel). […]

[3] = system: 4T1 breast cancer cells; assay: In-vitro EDHB nucleotide analysis by LC-MS, 4T1; type: cell-based, murine; conditions: 4T1 cells, 200 uM EDHB, 8 hours
Description: LC-MS analysis: The LC-MS/MS instrument consisting of an Acquity I-class UPLC system (Waters) and Xevo TQ-S triple quadrupole mass spectrometer (Waters), equipped with an electrospray ion source, and operated in positive ion mode was used for analysis of nucleoside monophosphates. MassLynx and TargetLynx software (version 4.1, Waters) were applied for the acquisition and analysis of data. Chromatographic separation was done on a 100 mm × 2.1 mm internal diameter, 1.8-µm UPLC HSS T3 column equipped with 50 mm × 2.1 mm internal diameter, 1.8-µm UPLC HSS T3 pre-column (both Waters Acquity) with mobile phases A (10 mM ammonium acetate and 5 mM ammonium hydrocarbonate buffer, pH 7.65 adjusted with 10% acetic acid) and B (acetonitrile) at a flow rate of 0.3 mL min-1 and column temperature 25° C. […] Nucleotide concentration was calculated using a standard curve of the relevant nucleotide concentration in each sample. Standard curves included increasing concentration of all measured nucleotides ranging from 0-10 ug/ml that were positioned at the beginning and at the end of each run. All the calculated values for the different nucleotides in each sample fell within the standard curve range. […]

[4] = system: A549 cells; assay: Nucleotide levels by LC-MS with or without methotrexate; type: cell-based; conditions: 1.2 µM Methotrexate
Procedure: Methotrexate treatment: A549 cells were grown for 48 hr in control medium or supplemented with 1.2 µM Methotrexate (Holland-Moran). Nucleotide levels were measured as described below by LC-MS. Purine/pyrimidine ratio was calculated by dividing (AMP+GMP+ATP+ADP+GTP) concentration by (UMP+CMP+TMP+UTP+CTP+TTP) concentration.
LC-MS analysis: The LC-MS/MS instrument consisting of an Acquity I-class UPLC system (Waters) and Xevo TQ-S triple quadrupole mass spectrometer (Waters), equipped with an electrospray ion source, and operated in positive ion mode was used for analysis of nucleoside monophosphates. MassLynx and TargetLynx software (version 4.1, Waters) were applied for the acquisition and analysis of data. Chromatographic separation was done on a 100 mm × 2.1 mm internal diameter, 1.8-µm UPLC HSS T3 column equipped with 50 mm × 2.1 mm internal diameter, 1.8-µm UPLC HSS T3 pre-column (both Waters Acquity) with mobile phases A (10 mM ammonium acetate and 5 mM ammonium hydrocarbonate buffer, pH 7.65 adjusted with 10% acetic acid) and B (acetonitrile) at a flow rate of 0.3 mL min-1 and column temperature 25° C. A gradient was used as follows: for 0-3 min the column was held at 0.2% B, then 3-3.5 min a linear increase to 100% B, 3.5-4.0 min held at 100% B, 4.0-4.5 min back to 0.2% B and equilibration at 0.2% B for 2.5 min. Samples kept at 8° C. were automatically injected in a volume of 3 µl. For mass spectrometry, argon was used as the collision gas with a flow of 0.10 mL min-1. The capillary voltage was set to 2.50 kV, source temperature 150° C., desolvation temperature 400° C., cone gas flow 150 1 hr-1, desolvation gas flow 800 1 hr-1. Nucleotide concentration was calculated using a standard curve of the relevant nucleotide concentration in each sample. Standard curves included increasing concentration of all measured nucleotides ranging from 0-10 ug/ml that were positioned at the beginning and at the end of each run. All the calculated values for the different nucleotides in each sample fell within the standard curve range. Analytes were detected in positive mode using multiple-reaction monitoring listed in Lee, J. S. et al. 2018 (REF_9).
Nucleotide levels of 4T1 cells grown either with or without 1.2 µM Methotrexate (Holland-Moran) for 48 h, were measured and quantified by liquid chromatography-mass spectrometry (LC-MS) as µg/mg protein.

total weight of the mice ([1]; 40 mg/kg EDHB IP daily, with anti PD-1): did not cause any change
Molecule: CCOC(=O)c1ccc(O)c(O)c1 [EDHB, Ethyl 3,4 dihydroxybenzoate]
tumor weight, EDHB and anti PD-1 combination treatment ([1]; 40 mg/kg EDHB IP daily from day 4, 250 ug anti PD-1 IP days 7, 11, 13, 15): reduces tumor weight
response to anti-PD1 therapy (IFN-g response) in PDX of non responsive patients ([2]; PDXs from lung cancer patients non responsive to anti-PD1, IFN-g measured following anti-PD1): increases response to anti-PD1 therapy
cellular deoxypyrimidine to deoxypurine ratio (pyrimidine / purine ratio) [3]: increase in pyrimidine / purine ratio

Molecule: CN(Cc1cnc2nc(N)nc(N)c2n1)c1ccc(C(=O)N[C@@H](CCC(=O)O)C(=O)O)cc1 [Methotrexate]
AMP level, Methotrexate Treatment ([4]; 48 h, 4T1 cells): 483.2 µg/mg pt
ATP level, Methotrexate Treatment ([4]; 48 h, 4T1 cells): 75.1 µg/mg pt
CMP level, Methotrexate Treatment ([4]; 48 h, 4T1 cells): 7.3 µg/mg pt
CTP level, Methotrexate Treatment ([4]; 48 h, 4T1 cells): 12.0 µg/mg pt
GMP level, Methotrexate Treatment ([4]; 48 h, 4T1 cells): 28.46 µg/mg pt
GTP level, Methotrexate Treatment ([4]; 48 h, 4T1 cells): 16.7 µg/mg pt
TMP level, Methotrexate Treatment ([4]; 48 h, 4T1 cells): 0.0078 µg/mg pt
TTP level, Methotrexate Treatment ([4]; 48 h, 4T1 cells): 0.004432 µg/mg pt
UMP level, Methotrexate Treatment ([4]; 48 h, 4T1 cells): 38.39 µg/mg pt
UTP level, Methotrexate Treatment ([4]; 48 h, 4T1 cells): 36.9 µg/mg pt
purine to pyrimidine ratio ([4]; high ASS1 expressing lung cancer cells (A549), 48 hr): decreased their purine to pyrimidine ratio

Molecule: nivolumab: anti-PD1 antibody
IFNγ secretion by autologous CD8+ T cells, anti-PD1 plus mizoribine-treated explants [2]: significant elevation in IFNγ secretion

Molecule: pembrolizumab: anti-PD1 antibody
IFNγ secretion by autologous CD8+ T cells, anti-PD1 plus mizoribine-treated explants [2]: significant elevation in IFNγ secretion
